Measured values as given in patent publication US20200256853A1, “Models of Reconstructed Sensitive Skin” (Laboratoires Expanscience, priority 2017, published 2020).

How the values were obtained:
Format in all cases: cell-based
[1] = system: reconstructed Sensitive Skin model (reconstructed human epidermises treated with 0.6% lactic acid); assay: Determination of PUFAs (GC/MS) in reconstructed Sensitive Skin model, Example 3; conditions: for C18:1 Change / C18:2 LA Change / C20:4 AA Change: change vs. lactic acid
Protocol: Screening of polyunsaturated fatty acids (PUFAs) expressed by the epidermis was carried out by GC/MS analysis of samples obtained after grinding the epidermises (n=2).
The amounts were normalized by C16:0 (palmitic acid), which is representative of the overall lipid content of the epidermis.
(§1) Reconstructed human epidermises were obtained from the keratinocytes of a […] donor using the method derived from Poumay et al. (Arch Dermatol Res 2004; 296:203-11). After 2 days of immersion culture, the reconstructed human epidermises were cultured at the air/liquid interface for 10 days.
(§2) Epidermises at differentiation day 10 was treated or not (control) systemically with the test compounds and incubated for 24 hours.
(§3) Same protocol as described in Example 2. • Determination of Poly-Unsaturated Fatty Acids (PUFAs) (n=2)
Same protocol as described in Example 2.

[2] = system: reconstructed Sensitive Skin model (reconstructed human epidermises treated with 0.6% lactic acid); assay: Determinations of released inflammatory mediators (ELISA) in reconstructed Sensitive Skin model, Example 3; conditions: for Released IL1-alpha Change / Released IL8 Change / Released PGE2 Change: change vs. lactic acid
Protocol: as §1, §2
(§4) The amount of inflammatory mediators IL-1alpha (IL1α), IL-8 and PGE2 present in skin culture supernatants was evaluated using ELISA kits (R&D Systems). • Evaluations of intracellular inflammatory markers IL-1α, IL8 and IL1-RA (n=2)

[3] = system: reconstructed Sensitive Skin model (reconstructed human epidermises treated with 0.6% lactic acid); assay: Intracellular measurements of inflammatory mediators (ELISA) in reconstructed Sensitive Skin model, Example 3; conditions: for IL1RA/IL1-alpha ratio Change / Intracellular IL1-alpha Change / Intracellular IL1RA Change / Intracellular IL8 Change: change vs. lactic acid
Protocol: Intracellular amounts of IL-1α, IL8 and IL1-RA were determined by ELISA (R&D Systems) in ground epidermis (n=2).
as §1, §2, §4, §3

[4] = OX100 100 μM + lactic acid 0.6%

With `CCCCCCCCCCCC1=NC(C)(C)CO1` [OX100, Cycloceramide] the “C18:1 Mean ± SD, amount normalized to C16:0” value ([1]; OX100 10 μM + lactic acid 0.6%) was 0.2795, the “C18:2 LA Mean ± SD, amount normalized to C16:0” value ([1]; OX100 10 μM + lactic acid 0.6%) was 0.1515 and the “C20:4 AA Mean ± SD, amount normalized to C16:0” value ([1]; OX100 10 μM + lactic acid 0.6%) was 0.0380. The “C18:1 Change” value ([1]; OX100 10 μM + lactic acid 0.6%) was −28%, the “C18:2 LA Change” value ([1]; OX100 10 μM + lactic acid 0.6%) was −29% and the “C20:4 AA Change” value ([1]; OX100 10 μM + lactic acid 0.6%) was −34%. The “C18:1 Mean ± SD, amount normalized to C16:0” value [1, 4] was 0.2065, the “C18:2 LA Mean ± SD, amount normalized to C16:0” value [1, 4] was 0.0970 and the “C20:4 AA Mean ± SD, amount normalized to C16:0” value [1, 4] was 0.0265. The “C18:1 Change” value [1, 4] was −47%, the “C18:2 LA Change” value [1, 4] was −54% and the “C20:4 AA Change” value [1, 4] was −54%. For the same compound, the “Released IL1-alpha Mean ± Standard deviation” value ([2]; OX100 10 μM + lactic acid 0.6%) was 27 ± 13 pg/mL, the “Released IL8 Mean ± Standard deviation” value ([2]; OX100 10 μM + lactic acid 0.6%) was 175 ± 30 pg/mL and the “Released PGE2 Mean ± Standard deviation” value ([2]; OX100 10 μM + lactic acid 0.6%) was 98 ± 28 pg/mL. For the same compound, the “Released IL1-alpha Change” value ([2]; OX100 10 μM + lactic acid 0.6%) was −61%, the “Released IL8 Change” value ([2]; OX100 10 μM + lactic acid 0.6%) was −16% and the “Released PGE2 Change” value ([2]; OX100 10 μM + lactic acid 0.6%) was −50%. For the same compound, the “Released IL1-alpha Mean ± Standard deviation” value [2, 4] was 31 ± 19 pg/mL, the “Released IL8 Mean ± Standard deviation” value [2, 4] was 146 ± 24 pg/mL and the “Released PGE2 Mean ± Standard deviation” value [2, 4] was 100 ± 48 pg/mL. For the same compound, the “Released IL1-alpha Change” value [2, 4] was −54%, the “Released IL8 Change” value [2, 4] was −30% and the “Released PGE2 Change” value [2, 4] was −49%. The “Release of IL1α induced by lactic acid (in words)” value ([2]; concentration not given) was “significantly inhibited”, the “Release of IL8 induced by lactic acid (in words)” value ([2]; concentration not given) was “significantly inhibited” and the “Release of PGE2 induced by lactic acid (in words)” value ([2]; concentration not given) was “significantly inhibited”. The IL1RA/IL1-alpha ratio Mean ± SD ([3]; OX100 10 μM + lactic acid 0.6%) was 25.6 ± 0.276, the “Intracellular IL1-alpha Mean ± SD” value ([3]; OX100 10 μM + lactic acid 0.6%) was 919.5 ± 53.03 pg/mg protein and the “Intracellular IL1RA Mean ± SD” value ([3]; OX100 10 μM + lactic acid 0.6%) was 23566 ± 1624 pg/mg protein. The “Intracellular IL8 Mean ± SD” value ([3]; OX100 10 μM + lactic acid 0.6%) was 76.24 ± 8.309 pg/mg protein, the “IL1RA/IL1-alpha ratio Change” value ([3]; OX100 10 μM + lactic acid 0.6%) was “+4%” and the “Intracellular IL1-alpha Change” value ([3]; OX100 10 μM + lactic acid 0.6%) was −12%. The “Intracellular IL1RA Change” value ([3]; OX100 10 μM + lactic acid 0.6%) was −8%, the “Intracellular IL8 Change” value ([3]; OX100 10 μM + lactic acid 0.6%) was −4% and the IL1RA/IL1-alpha ratio Mean ± SD [3, 4] was 20.5 ± 0.481. The “Intracellular IL1-alpha Mean ± SD” value [3, 4] was 713.5 ± 113.8 pg/mg protein, the “Intracellular IL1RA Mean ± SD” value [3, 4] was 14581 ± 1989 pg/mg protein and the “Intracellular IL8 Mean ± SD” value [3, 4] was 56.95 ± 7.460 pg/mg protein. For the same compound, the “IL1RA/IL1-alpha ratio Change” value [3, 4] was −17%, the “Intracellular IL1-alpha Change” value [3, 4] was −32% and the “Intracellular IL1RA Change” value [3, 4] was −43%. The “Intracellular IL8 Change” value [3, 4] was −28%, the “IL1RA/IL1α ratio (in words)” value ([3]; concentration not given) was “maintained the balance of the IL1RA/IL1α ratio” and the “Increase in intracellular IL1RA level induced by lactic acid treatment (in words)” value ([3]; concentration not given) was “significantly inhibited”.
